# Patent US20130030007A1, “Obesity Small Molecules” (AKRON MOLECULES GMBH, priority 2010, published 2013)
# Non-standard residues stand in square brackets, D forms with d. Residues, ends and D or L forms follow the SMILES beside them. No end group written: not given here. pGlu = O=C1CC[C@@H](C(=O)O)N1; Thz = O=C(O)[C@@H]1CSCN1
# Test system: human ortholog of Drosophila obesity gene
# Experiment: Table 1: type of interaction of small molecule with therapeutic target gene
# Design: key: O: Obesity - obesity pathway interaction; B: validated binding partner
# Conditions: not given
row,Compound,Type: Type of interaction
1,COc1ccc(-c2cc(=O)c3c(OC)c(OC)c(OC)c(OC)c3o2)cc1 [Tangeretin],B
2,O=C(O[C@@H]1Cc2c(O)cc(O)cc2O[C@@H]1c1ccc(O)c(O)c1)c1cc(O)c(O)c(O)c1 [epicatechin gallate],B
3,O=C1C[C@@H](c2ccc(O[C@@H]3O[C@H](CO)[C@@H](O)[C@H](O)[C@H]3O)cc2)Oc2cc(O)ccc21 [liquiritin],O
4,O=c1c2ccccc2nc2n1CCc1c-2[nH]c2ccccc12 [rutecarpine],B
5,O=C(/C=C/c1ccccc1)NC(NC(=S)Nc1cccc2cccnc12)C(Cl)(Cl)Cl (stereo not drawn) [salubrinal],B

# Test system: human ortholog of Drosophila obesity gene
# Experiment: not given
# Design: key: O: Obesity - obesity pathway interaction; B: validated binding partner
# Conditions: cited from earlier work
row,Compound,Type: Type of interaction
1,O=C1OC(=O)[C@H]2[C@@H]1[C@@H]1CC[C@H]2O1 [norcantharidin],B
2,O=C1NC(=O)C2C3C=CC(C3)C12 (stereo not drawn) [noreximide],O
3,Oc1ccc(CC2NCCc3cc(O)c(O)cc32)cc1O (stereo not drawn) [norlaudanosoline],B
4,C[C@@H]1Cc2c(Cl)cc(C(=O)N[C@@H](Cc3ccccc3)C(=O)O)c(O)c2C(=O)O1 [ochratoxin A],O
5,O=C(O[C@H]1[C@@H]2OC(=O)c3cc(O)c(O)c(O)c3-c3c4cc(c(O)c3O)Oc3c(cc(O)c(O)c3O)C(=O)O[C@H]3C(O)O[C@@H]5COC(=O)c6cc(O)c(O)c(O)c6-c6c(cc(c(O)c6O)Oc6c(cc(O)c(O)c6O)C(=O)O[C@H]1C(O)O[C@@H]2COC4=O)C(=O)O[C@H]5[C@@H]3OC(=O)c1cc(O)c(O)c(O)c1)c1cc(O)c(O)c(O)c1 (stereo partly drawn) [oenothein B],B
6,CO[C@H]1C[C@H](O[C@H]2CC[C@@]3(C)[C@H](CC[C@@H]4[C@@H]3CC[C@]3(C)[C@@H](C5=CC(=O)OC5)[C@@H](OC(C)=O)C[C@]43O)C2)O[C@@H](C)[C@@H]1O [oleandrin],B
7,CCCCCCCC/C=C\CCCCCCCC(N)=O [oleylamide],B
8,COc1ccc(-c2coc3cc(O)cc(O)c3c2=O)cc1 [olmelin],B
9,CNC(=N)NCCC[C@H](N)C(=O)O [omega-N-Methylarginine],O
10,O=C(O)C(=O)O.[NH-][C@@H]1CCCC[C@H]1[NH-].[Pt+2] [oxaliplatin],O
11,CCCCC[C@H](O)/C=C/[C@H]1C=CC(=O)[C@@H]1CCCCCCC(=O)O [prostaglandin A1],O
12,CCCCC[C@H](O)/C=C/[C@H]1C(=O)C[C@H](O)[C@@H]1C/C=C\CCCC(=O)O [prostaglandin D2],B
13,CCCCC[C@H](O)/C=C/[C@H]1[C@H](O)CC(=O)[C@@H]1CCCCCCC(=O)O [prostaglandin E1],O
14,CCCCC[C@H](O)/C=C/[C@@H]1[C@@H](C/C=C\CCCC(=O)O)[C@@H](O)C[C@H]1O [prostaglandin F2alpha],O
15,CCCCC[C@H](O)/C=C/[C@@H]1[C@@H](C/C=C\CCCC(=O)O)[C@@H]2C[C@H]1OO2 [prostaglandin H2],O
16,COC(=O)C1=CC[C@@]23CC[C@@H]([C@@](C)(/C=C/C=C(\C)C(=O)O)OC2=O)[C@@]3(OC(C)=O)CC1 [pseudolaric acid B],O
17,C[C@H](N[C@@H](CCc1ccccc1)C(=O)O)C(=O)N1[C@H](C(=O)O)C[C@@H]2CCC[C@@H]21 [ramiprilat],B
18,LY 303511,O
19,mahanine,B
20,maraviroc,B
21,melitten,O
22,milbemycin,O
23,neodymium,O
24,obovatol,B
25,pegvisomant,O
26,pentosidine,B
27,pheophorbide a,O
28,pifithrin,B
29,pindobind,O
30,prostaglandin J2,O

# Same assay, conditions: interaction of the small molecule with the human ortholog(s) / Drosophila gene(s) listed in the same table line; cited from earlier work
row,Compound,Type: Type of interaction
1,CNc1cc(OC)c(C(=O)NC2CCN(Cc3ccccc3)C2C)cc1Cl (stereo not drawn) [nemonapride],O
2,O=C1NC(=O)C(Cc2ccc3cc(OCc4ccccc4F)ccc3c2)S1 (stereo not drawn) [netoglitazone],B
3,CC(CNC(=O)c1cccnc1)NC(=O)c1cccnc1 (stereo not drawn) [nicaraven],O
4,NCCC(Oc1ccc(C(F)(F)F)cc1)c1ccccc1 (stereo not drawn) [norfluoxetine],B
5,COc1ccc(CCNCCCC(C#N)(c2ccc(OC)c(OC)c2)C(C)C)cc1OC (stereo not drawn) [norverapamil],O
6,CO[C@@H]1[C@@H](OC(N)=O)[C@@H](O)[C@H](Oc2ccc3c(O)c(NC(=O)c4ccc(O)c(CC=C(C)C)c4)c(=O)oc3c2C)OC1(C)C [novobiocin],O
7,O=C(N[C@H]1CCS[C@H]2CCC[C@@H](C(=O)O)N2C1=O)[C@@H](S)Cc1ccccc1 [omapatrilat],O
8,COc1ccc2nc(S(=O)(=O)Cc3ncc(C)c(OC)c3C)[nH]c2c1 [omeprazole sulfone],B
9,CO[C@@H]1C(=O)CC[C@]2(CO2)[C@@]1(O)[C@@]1(C)O[C@@H]1CC=C(C)C [ovalicin],B
10,O=c1[nH]c2ccccc2n1CCCN1CCN(C(c2ccccc2)c2ccccc2)CC1 [oxatomide],B
11,NC(=O)N1c2ccccc2CC(=O)c2ccccc21 [oxcarbazepine],O
12,O=C1CCC[C@@H]2[C@H]3CCC[N+]4([O-])CCC[C@@H](CN12)[C@@H]34 (stereo partly drawn) [oxymatrine],B
13,Nc1ccc(C(=O)NCC(=O)O)cc1 [p-Aminohippuric Acid],B
14,NCCC(O)(P(=O)(O)O)P(=O)(O)O [pamidronate],B
15,CC1(C)CCC[C@](C)([C@H]2CC[C@]3(C)[C@@H]2[C@H](O)C[C@@H]2[C@@]4(C)CC[C@H](O)C(C)(C)[C@@H]4CC[C@]23C)O1 [panaxadiol],B
16,c1ccc2c(c1)ccc1ccccc12 [phenanthrene],O
17,COc1cc([C@@H]2c3cc4c(cc3[C@H](O)[C@H]3COC(=O)[C@@H]23)OCO4)cc(OC)c1OC [picropodophyllin],B
18,O=C1CC[C@@H](C(=O)N2CSC[C@H]2C(=O)O)N1 [pidotimod] ([pGlu]-[Thz]-OH),O
19,CC1=CC(=O)c2c(O)cccc2C1=O [plumbagin],B
20,CC[C@@H]([C@H](C)O)n1ncn(-c2ccc(N3CCN(c4ccc(OC[C@@H]5CO[C@@](Cn6cncn6)(c6ccc(F)cc6F)C5)cc4)CC3)cc2)c1=O [posaconazole],B
21,CC(=O)O[C@@]12C[C@@H](C)[C@@]3(O)[C@@H](C=C(CO)C[C@]4(O)C(=O)C(C)=C[C@@H]34)[C@@H]1C2(C)C [prostratin],O
22,COCCCN1CCC(NC(=O)c2cc(Cl)c(N)c3c2OCC3)CC1 [prucalopride],O
23,O=c1c(-c2ccc(O)cc2)coc2c([C@@H]3O[C@H](CO)[C@@H](O)[C@H](O)[C@H]3O)c(O)ccc12 [puerarin],B
24,OCCOCCN1CCN(C2=Nc3ccccc3Sc3ccccc32)CC1 [quetiapine],O
25,COC1=C(CC(C)OC(=O)c2cc(Cl)c(O)cc2O)C(=O)C(NC=O)=CC1=O (stereo not drawn) [radester],O
26,Pyrethrins,O
27,"neuromedin C (GNHWAVGHLM; ends and bridges not checked; UniProt P07492 41-50, looked up)",O
28,omalizumab,B

# Test system: not given
# Experiment: not given
# Conditions: human, in vivo, po; cited from earlier work
row,Compound,acute toxic effects
1,CCC(=O)O[C@]1(C(=O)SCF)[C@H](C)C[C@H]2[C@@H]3C[C@H](F)C4=CC(=O)C=C[C@]4(C)[C@@]3(F)[C@@H](O)C[C@@]21C [fluticasone propionate],no acute toxic effects reported

# Same assay, conditions: intranasal 2 mg twice daily for 7 days, healthy human volunteers; cited from earlier work
row,Compound,tolerability
1,CCC(=O)O[C@]1(C(=O)SCF)[C@H](C)C[C@H]2[C@@H]3C[C@H](F)C4=CC(=O)C=C[C@]4(C)[C@@]3(F)[C@@H](O)C[C@@]21C [fluticasone propionate],well tolerated

# Same assay, conditions: repeat oral doses up to 80 mg daily for 10 days in volunteers, up to 10 mg daily for 14 days in patients; cited from earlier work
row,Compound,tolerability
1,CCC(=O)O[C@]1(C(=O)SCF)[C@H](C)C[C@H]2[C@@H]3C[C@H](F)C4=CC(=O)C=C[C@]4(C)[C@@]3(F)[C@@H](O)C[C@@]21C [fluticasone propionate],well tolerated
